Measured values as given in ChEMBL document CHEMBL6071165, “Design, synthesis and biological evaluation of plant-derived miliusol derivatives achieve TNBC profound regression in vivo” (Eur J Med Chem, 2024).
The source made the active and inactive calls. No cut-off for these calls is given here.

What was measured:
BT-549 [1] = assay: Inhibition of cell migration in human BT-549 cells assessed as reduction in MMP-2 protein level at 1 uM incubated for 24 hrs by DAPI staining based immunofluorescence analysis; assay type: functional
[2] = Selectivity ratio of IC50 for antiproliferative activity against human MCF-10A cells assessed as inhibition of cell proliferation incubated for 48 hrs by MTT assay to IC50 for antiproliferative activity against human MDA-MB-231 cells assessed as inhibition of cell proliferation incubated for 48 hrs by MTT assay; assay type: cell-based; details: MCF-10A cells versus MDA-MB-231 cells, read-out: Ratio IC50
BT-549 [3] = assay: Inhibition of cell migration in human BT-549 cells assessed as decrease in MMP-2 level incubated for 24 hrs by Western blot analysis; assay type: functional, cell-based; details: dose 0.5-2 µM
MDA-MB-231 [4] = assay: Inhibition of glycolysis in human MDA-MB-231 cells assessed as reduction in glucose uptake at 0.5 to 2 uM incubated for 24 hrs followed by 2-NBDG staining based flow cytometric analysis; assay type: functional, cell-based; details: dose 0.5-2 µM
BT-549 [5] = assay: Induction of apoptosis in human BT-549 cells assessed as necrotic cells at 0.5 uM incubated for 24 hrs by Annexin V-PI staining based flow cytometric analysis (reference value: 3.32%); assay type: functional
BT-549 [6] = assay: Antiproliferative activity against human BT-549 cells xenografted in female BALB/c mouse model assessed as fold change in downregulation of MMP-2 protein level at 5 mg/kg administered subcutaneously incubated for 24 hrs by Western blot analysis (reference value: 1.00%); assay type: functional; details: route sc
BT-549 [7] = assay: Induction of apoptosis in human BT-549 cells assessed as viable cells at 0.5 uM incubated for 24 hrs by Annexin V-PI staining based flow cytometric analysis (reference value: 93.0%); assay type: functional; details: read-out: Activity
BT-549 [8] = assay: Inhibition of glycolysis in human BT-549 cells assessed as reduction in lactate production at 0.5 to 2 uM; assay type: functional, cell-based; details: dose 0.5-2 µM
MDA-MB-231 [9] = assay: Induction of apoptosis in human MDA-MB-231 cells assessed as upregulation of cleavage of caspase-3 expression at 0.5 to 2 uM incubated for 24 hrs by Western blot analysis; assay type: functional, cell-based; details: dose 0.5-2 µM
MDA-MB-231 [10] = assay: Induction of apoptosis in human MDA-MB-231 cells assessed as necrotic cells at 0.5 uM incubated for 24 hrs by Annexin V-PI staining based flow cytometric analysis (reference value: 1.29%); assay type: functional
BT-549 [11] = assay: Induction of ER stress in human BT-549 cells assessed as increase in calcium ion content at 2 uM incubated for 24 hrs by Fluo-3AM staining based flow cytometric analysis; assay type: functional, cell-based
[12] = Toxicity in female BALB/c mouse assessed as change in liver administered subcutaneously measured upto 16 days; assay type: tissue-based; details: in vivo, sc, 384 h, time < 16 day
MDA-MB-231 [13] = assay: Antiproliferative activity against human MDA-MB-231 cells xenografted in female BALB/c mouse model assessed as fold change in upregulation of BAX protein level at 5 mg/kg administered subcutaneously incubated for 24 hrs by Western blot analysis (reference value: 1.00%); assay type: functional; details: route sc
BT-549 [14] = assay: Antiproliferative activity against human BT-549 cells xenografted in female BALB/c mouse model assessed as fold change in upregulation of BAX protein level at 5 mg/kg administered subcutaneously incubated for 24 hrs by Western blot analysis (reference value: 1.00%); assay type: functional; details: route sc
BT-549 [15] = assay: Inhibition of cell migration in human BT-549 cells assessed as decrease in SNAIL level at 1 uM incubated for 24 hrs by DAPI staining based immunofluorescence analysis; assay type: functional
MDA-MB-231 [16] = assay: Induction of apoptosis in human MDA-MB-231 cells assessed as early apoptotic cells at 2 uM incubated for 24 hrs by Annexin V-PI staining based flow cytometric analysis (reference value: 0.42%); assay type: functional
BT-549 [17] = assay: Antiproliferative activity against human BT-549 cells xenografted in female BALB/c mouse model assessed as fold change in inhibition of PKM2 expression at 5 mg/kg administered subcutaneously incubated for 24 hrs by Western blot analysis (reference value: 1.05%); assay type: functional; details: route sc
MDA-MB-231 [18] = assay: Antiproliferative activity against human MDA-MB-231 cells xenografted in female BALB/c mouse model assessed as fold change in upregulation of BIP protein level at 10 mg/kg administered subcutaneously incubated for 24 hrs by Western blot analysis (reference value: 1.00%); assay type: functional; details: route sc
MDA-MB-231 [19] = assay: Inhibition of cell migration in human MDA-MB-231 cells assessed as decrease in SNAIL level at 1 uM incubated for 24 hrs by DAPI staining based immunofluorescence analysis; assay type: functional
BT-549 [20] = assay: Inhibition of glycolysis in human BT-549 cells assessed as decrease in LDHA protein level at 0.5 to 2 uM incubated for 24 hrs by Western blot analysis; assay type: functional, cell-based; details: dose 0.5-2 µM
MDA-MB-231 [21] = assay: Antiproliferative activity against human MDA-MB-231 cells xenografted in female BALB/c mouse model assessed as fold change in upregulation of BIP protein level at 20 mg/kg administered subcutaneously incubated for 24 hrs by Western blot analysis (reference value: 1.00%); assay type: functional; details: route sc
BT-549 [22] = assay: Induction of apoptosis in human BT-549 cells assessed as viable cells at 2 uM incubated for 24 hrs by Annexin V-PI staining based flow cytometric analysis (reference value: 93.0%); assay type: functional; details: read-out: Activity
BT-549 [23] = assay: Antiproliferative activity against human BT-549 cells xenografted in female BALB/c mouse model assessed as fold change in upregulation of BAX protein level at 20 mg/kg administered subcutaneously incubated for 24 hrs by Western blot analysis (reference value: 1.00%); assay type: functional; details: route sc
BT-549 [24] = assay: Inhibition of DNA replication in human BT-549 cells assessed as reduction in EDU fluorescence intensity by EDU staining based fluorescence microscopic analysis; assay type: functional, cell-based; details: dose 0.5-2 µM
MDA-MB-231 [25] = assay: Induction of ER stress in human MDA-MB-231 cells assessed as increase in calcium ion content at 2 uM incubated for 24 hrs by Fluo-3AM staining based flow cytometric analysis; assay type: functional, cell-based
BT-549 [26] = assay: Inhibition of cell migration in human BT-549 cells assessed as increase in E-cadherin level by incubated for 24 hrs by Western blot analysis; assay type: functional, cell-based; details: dose 0.5-2 µM
[27] = Toxicity in female BALB/c mouse xenografted with human MDA-MB-231 cells assessed as effect on pathological changes in liver at 5 to 20 mg/kg, sc by H and E staining based analysis; assay type: organism-based; details: in vivo, dose 5-20 mg/kg
MDA-MB-231 [28] = assay: Downregulation of LDHA expression in human MDA-MB-231 cells at 1 uM incubated for 24 hrs by DAPI staining based immunofluorescence analysis; assay type: functional, cell-based
[29] = Toxicity in female BALB/c mouse xenografted with human MDA-MB-231 cells assessed as effect on pathological changes in kidney at 5 to 20 mg/kg, sc by H and E staining based analysis; assay type: organism-based; details: in vivo, dose 5-20 mg/kg
BT-549 [30] = assay: Inhibition of glycolysis in human BT-549 cells assessed as decrease in GLUT4 protein level at 0.5 to 2 uM incubated for 24 hrs by Western blot analysis; assay type: functional, cell-based; details: dose 0.5-2 µM
MDA-MB-231 [31] = assay: Inhibition of cell proliferation in human MDA-MB-231 cells assessed as reduction in Ki-67 expression at 0.5 to 2 uM incubated for 24 hrs by DAPI staining based immunofluorescence analysis; assay type: functional; details: dose 0.5-2 µM
[32] = Toxicity in female BALB/c mouse xenografted with human MDA-MB-231 cells assessed as effect on body weight at 5 to 20 mg/kg, sc and measured daily; assay type: organism-based; details: in vivo, dose 5-20 mg/kg
MDA-MB-231 [33] = assay: Inhibition of DNA replication in human MDA-MB-231 cells assessed as reduction in EDU fluorescence intensity by EDU staining based fluorescence microscopic analysis; assay type: functional, cell-based; details: dose 0.5-2 µM

With CC(C)=CCC/C(C)=C/[C@H]1OC(=O)CC12C[C@H](OC(=O)Cc1ccc(NC(=O)/C=C/c3ccccc3)cc1)C=CC2=O (stereo partly drawn) the inhibition (BT-549 [1]) was “Active”, the selectivity ratio at 48 h [2] was 36.4 and the inhibition (BT-549 [3]) was “Dose-Dependent Effect”. For the same compound, the inhibition (MDA-MB-231 [4]) was “Active”, the Activity (BT-549 [5]) was 3.73% and the “fold change (FC)” value (BT-549 [6]) was 0.99. The viability at 0.5 µM (BT-549 [7]) was 91.7%, the inhibition (BT-549 [8]) was “Active” and the Activity (MDA-MB-231 [9]) was “Active”. The Activity (MDA-MB-231 [10]) was 12.7%, the Activity (BT-549 [11]) was “Active” and the Activity [12] was “Non-Toxic”. For the same compound, the “fold change (FC)” value (MDA-MB-231 [13]) was 1.05, the “fold change (FC)” value (BT-549 [14]) was 1.4 and the inhibition (BT-549 [15]) was “Active”. For the same compound, the Activity (MDA-MB-231 [16]) was 2.23%, the “fold change (FC)” value (BT-549 [17]) was 0.97 and the “fold change (FC)” value (MDA-MB-231 [18]) was 2.1. For the same compound, the inhibition (MDA-MB-231 [19]) was “Active”, the inhibition (BT-549 [20]) was “Active” and the “fold change (FC)” value (MDA-MB-231 [21]) was 2.42. For the same compound, the viability at 2 µM (BT-549 [22]) was 34.8%, the “fold change (FC)” value (BT-549 [23]) was 2.21 and the inhibition (BT-549 [24]) was “Dose-Dependent Effect”. For the same compound, the Activity (MDA-MB-231 [25]) was “Active”, the inhibition (BT-549 [26]) was “Dose-Dependent Effect” and the Activity [27] was “Non-Toxic”. For the same compound, the Activity (MDA-MB-231 [28]) was “Active”, the Activity [29] was “Non-Toxic” and the inhibition (BT-549 [30]) was “Active”. For the same compound, the inhibition (MDA-MB-231 [31]) was “Active”, the Activity [32] was “Non-Toxic” and the inhibition (MDA-MB-231 [33]) was “Dose-Dependent Effect”.
